Results reported in patent US10442805B2, “Polymorphic forms of a hydrochloride salt of (S)-2-(1-(9H-purin-6-ylamino)propyl)-5-fluoro-3-phenylquinazolin-4(3H)-one” (GILEAD CALISTOGA LLC, priority 2013, dated 2019).

Key:
Format in all cases: physicochemical
[1] = Hydrate screen on the HCl salt: solubility in ethanol/water; details: ethanol/water mixture, aqueous with cosolvent or surfactant or cyclodextrin, thermodynamic from solid; for solubility at 5 days: solubility column beside XRPD after 5 days
Source text: (§1) Polymorphic Form I of a hydrochloride salt of (S)-2-(1-(9H-purin-6-ylamino)propyl)-5-fluoro-3-phenylquinazolin-4(3H)-one, i.e., Compound of Formula (I), prepared according to the protocols described in Example 1 above was mixed with ethanol and water. XRPDs were taken on Days 5 and 21.

[2] = Dynamic vapour sorption (DVS); details: 25° C.
[3] = Form screen on the HCl salt: solid form by XRPD after suspension in solvent
Protocol: XRPD patterns were collected at room temperature, using a PANalytical X'Pert MPD Pro Powder X-Ray Diffractometer configured with reflectance stage with spinning, data acquisition range: 2-40 degrees 2θ, Copper (Cu) anode; Kα1/Kα2 radiation; tube current 40 mA; tube tension 45 kV; automatic divergence and anti-scatter slits. Samples were prepared for analysis by distributing solid material as a thin layer on a silicon holder. Each holder was mounted on a reflectance/transmittance stage and rotated during data acquisition. […] After 7 days, a sample of the suspension was removed from the vial/flask, and the sample was centrifuged and filtered to separate the solids from the liquid in the sample. The isolated solids were characterized by XRPD (collected at room temperature). The filtrate was retained. After about 25 days, another sample was removed from the vial/flask, and the sample was centrifuged and filtered to separate the solids from the liquid in the sample. The isolated solids were characterized by XRPD (collected at room temperature).

[4] = Hydrate screen on the HCl salt: solid form by XRPD in ethanol/water (effect of water on stability of Form I); details: for changes in XRPD in the hydrate screen: water/ethanol system
Protocol: XRPD patterns were collected at room temperature, using a PANalytical X'Pert MPD Pro Powder X-Ray Diffractometer configured with reflectance stage with spinning, data acquisition range: 2-40 degrees 2θ, Copper (Cu) anode; Kα1/Kα2 radiation; tube current 40 mA; tube tension 45 kV; automatic divergence and anti-scatter slits. Samples were prepared for analysis by distributing solid material as a thin layer on a silicon holder. Each holder was mounted on a reflectance/transmittance stage and rotated during data acquisition.
as §1

[5] = XRPD of solvate forms after drying or heating
Protocol: For Pattern 1, shown in FIGS. 14A and 15B, 50 mg of the hydrochloride salt of the Compound Formula (I) was suspended in propyl acetate (3.5 mL, 70 vol) and held at 50° C. for 15 minutes, after which 1.1 eq of 12M HCl (11.6 μL) was added and the sample slowly cooled from 50° C. to 5° C. at 0.1° C. per minute. The XRPD pattern shown in FIG. 14A was observed while the sample was wet. […] FIG. 14C depicts the XRPD pattern after further heating at about 145° C. for about 16 hours (Pattern 9′).
For the toluene solvate, shown in FIG. 20 (wet), 50 mg of the polymorphic Form I of a hydrochloride salt of the Compound of Formula (I) was treated with toluene (3.5 mL, 70 vols), producing a suspension at 50° C. This suspension was matured between 50° C. and room temperature (8 hours per cycle) for three days.

[6] = 114 mg in tetrahydrofuran (THF)
[7] = 117 mg in isopropyl acetate (IPAc)
[8] = 140 mg in ethyl acetate (EtOAc)
[9] = 149 mg in methyl ethyl ketone (MEK)
[10] = 150 mg in methyl t-butyl ether (MTBE)
[11] = 154 mg in 2-methyltetrahydrofuran (2-MeTHF)
[12] = 160 mg in dichloromethane (DCM)
[13] = 176 mg in methyl isobutyl ketone (MIBK)

SMILES: CC[C@H](Nc1ncnc2[nH]cnc12)c1nc2cccc(F)c2c(=O)n1-c1ccccc1 [(S)-2-(1-(9H-purin-6-ylamino)propyl)-5-fluoro-3-phenylquinazolin-4(3H)-one]
- solubility at 21 days ([1]; Ethanol/water aw 0.2): 60 mg/mL
- solubility at 5 days ([1]; Ethanol/water aw 0.2): 26 mg/mL
- solubility at 21 days ([1]; Ethanol/water aw 0.3): 33 mg/mL
- solubility at 5 days ([1]; Ethanol/water aw 0.3): 47 mg/mL
- solubility at 21 days ([1]; Ethanol/water aw 0.4): 66 mg/mL
- solubility at 5 days ([1]; Ethanol/water aw 0.4): 57 mg/mL
- solubility at 21 days ([1]; Ethanol/water aw 0.5): 93 mg/mL
- solubility at 5 days ([1]; Ethanol/water aw 0.5): 72 mg/mL
- solubility at 21 days ([1]; Ethanol/water aw 0.6): 183 mg/mL
- solubility at 21 days ([1]; Ethanol/water aw 0.7): 223 mg/mL
- solubility at 21 days ([1]; Ethanol/water aw 0.8): 174 mg/mL
- solubility at 21 days ([1]; Ethanol/water aw 0.9): 44 mg/mL
- DVS: mass change as a function of RH [2]: minor mass increase
- XRPD after 7 days [3, 6]: new
- XRPD after about 25 [3, 6]: Form IX
- XRPD after 7 days [3, 7]: Form I
- XRPD after about 25 [3, 7]: Form I
- XRPD after 7 days ([3]; 119 mg in water): Form I
- XRPD after about 25 ([3]; 119 mg in water): Form I
- XRPD after 7 days ([3]; 120 mg in acetonitrile (ACN)): Form I
- XRPD after about 25 ([3]; 120 mg in acetonitrile (ACN)): Form I
- XRPD after 7 days ([3]; 125 mg in acetone): new
- XRPD after about 25 ([3]; 125 mg in acetone): Form X
- XRPD after 7 days ([3]; 132 mg in 2-propanol): Form I
- XRPD after about 25 ([3]; 132 mg in 2-propanol): mixture
- XRPD after 7 days [3, 8]: Form I
- XRPD after about 25 [3, 8]: Form I
- XRPD after 7 days [3, 9]: new
- XRPD after about 25 [3, 9]: Form VII
- XRPD after 7 days [3, 10]: Form I
- XRPD after about 25 [3, 10]: Form I
- XRPD after 7 days [3, 11]: Form V
- XRPD after about 25 [3, 11]: Form V
- XRPD after 7 days ([3]; 155 mg in methanol): Form I
- XRPD after about 25 ([3]; 155 mg in methanol): Form I
- XRPD after 7 days ([3]; 157 mg in Ethanol): Form I
- XRPD after about 25 ([3]; 157 mg in Ethanol): Form I
- XRPD after 7 days [3, 12]: new
- XRPD after about 25 [3, 12]: Form VIII
- XRPD after 7 days ([3]; 163 mg in n-heptane): Form I
- XRPD after about 25 ([3]; 163 mg in n-heptane): Form I
- XRPD after 7 days [3, 13]: Form I
- XRPD after about 25 [3, 13]: Form VI
- XRPD after about 25 ([3]; 10 g in 1-butanol): Form XIII
- XRPD after about 25 ([3]; 10 g in 1-propanol): Form XII
- XRPD after about 25 ([3]; 10 g in 2-propanol): Form XI
- XRPD after 5 days ([4]; Ethanol/water aw 0.2): Form I
- XRPD after 21 days ([4]; Ethanol/water aw 0.2): Form I
- XRPD after 5 days ([4]; Ethanol/water aw 0.3): Form I
- XRPD after 21 days ([4]; Ethanol/water aw 0.3): Form I
- XRPD after 5 days ([4]; Ethanol/water aw 0.4): Form I
- XRPD after 21 days ([4]; Ethanol/water aw 0.4): Form I
- XRPD after 5 days ([4]; Ethanol/water aw 0.5): Form I
- XRPD after 21 days ([4]; Ethanol/water aw 0.5): Form I
- XRPD after 5 days ([4]; Ethanol/water aw 0.6): Form I
- XRPD after 21 days ([4]; Ethanol/water aw 0.6): Form I
- XRPD after 5 days ([4]; Ethanol/water aw 0.7): Form I
- XRPD after 21 days ([4]; Ethanol/water aw 0.7): Form I
- XRPD after 5 days ([4]; Ethanol/water aw 0.8): Form I
- XRPD after 21 days ([4]; Ethanol/water aw 0.8): Form I
- changes in XRPD in the hydrate screen ([4]; all water activities except 0.9): no changes in XRPD
- changes in XRPD in the hydrate screen ([4]; water activity 0.9): converted some of the hydrochloride salt to polymorphic Form I of the free form

SMILES: CC[C@H](Nc1ncnc2[nH]cnc12)c1nc2cccc(F)c2c(=O)n1-c1ccccc1 [Pattern 1, (S)-2-(1-(9H-purin-6-ylamino)propyl)-5-fluoro-3-phenylquinazolin-4(3H)-one]
- XRPD pattern after drying ([5]; drying in a vacuum oven at about 25° C. for 6 days): Pattern 9

SMILES: CC[C@H](Nc1ncnc2[nH]cnc12)c1nc2cccc(F)c2c(=O)n1-c1ccccc1 [Pattern 9, (S)-2-(1-(9H-purin-6-ylamino)propyl)-5-fluoro-3-phenylquinazolin-4(3H)-one]
- XRPD pattern after further heating ([5]; further heating at about 145° C. for about 16 hours): Pattern 9′

SMILES: CC[C@H](Nc1ncnc2[nH]cnc12)c1nc2cccc(F)c2c(=O)n1-c1ccccc1 [Toluene solvate, (S)-2-(1-(9H-purin-6-ylamino)propyl)-5-fluoro-3-phenylquinazolin-4(3H)-one]
- XRPD upon drying ([5]; upon drying): mixture of Pattern 1 and Pattern 9′
